Laboratory results from patent US20180201647A1, “Peptoid” (The University of Durham, priority 2015, published 2018).
Read-outs that look alike come from different tables or passages of the source. Where a SMILES comes first, the peptide text is derived from it. [ ]: non-standard residue; d: D form. Nspe = C[C@H](NCC(=O)O)c1ccccc1; NhArg = N=C(N)NCCCCNCC(=O)O; Nlys = NCCCCNCC(=O)O

How the values were obtained:
Format in all cases: cell-based
[1] = tested on: Escherichia coli K12 W3110
Procedure: (§1) Species used in MIC assays included gram-negative Escherichia coli K12 W3110, Pseudomonas aeruginosa laboratory strain PAO2 and Serratia marcescens laboratory strain and gram-positive Staphylococcus aureus NCTC 6571 and Micrococcus luteus laboratory strain.
(§2) Bacterial cultures were prepared by streaking the bacterial strains on to agar plates with an inoculation loop and incubating overnight at 37° C. A single colony was then selected and placed in 5 mL of Iso-Sensitest broth using an inoculation loop and incubated at 37° C. with shaking overnight.
(§3) MIC values were attained according to the protocol described by J. M. Andrews et al. [J. M. Andrews, J. Antimicrob. Chemother., 2001, 48, 5-16] and were conducted in 96-well microtitre plates in triplicate. 10-50 μL of each overnight culture was inoculated into 1.2 mL of Iso-Sensitest broth and grown at 37° C. with shaking. […] The inoculum was diluted ten-fold with Iso-Sensitest broth before use (to ˜10^3 cfu/spot). Peptide solutions were initially dissolved in DMSO (5 mg mL^−1) and then diluted further with Iso-Sensitest broth to achieve a concentration range of 4 mgL^−1 to 512 mgL^−1 using 2-fold serial dilutions. Samples were vortexed between dilutions where necessary to aid dissolution. 50 μL of inoculum and 50 μL of peptide solution were added to each test well to achieve a final concentration range of 2 mgL^−1 to 256 mgL^−1. Separate dilutions of ampicillin and DMSO were made up in a similar manner to act as a positive antibacterial control and a +DMSO control, respectively. 50 μL of inoculum and 50 μL of Iso-Sensitest broth were used as a positive control and 100 μL of inoculum was used as a negative control. Positive and negatives controls were conducted multiple times in parallel per plate. […] Quantitative data were attained as A650nm values using a BioTek® Synergy™ H4 Hybrid Multi-Mode Microplate Reader.

[2] = tested on: Pseudomonas aeruginosa laboratory strain PAO2
Procedure: as §1, §2, §3

[3] = tested on: Serratia marcescens laboratory strain; conditions: 16 h
Procedure: as §1, §2, §3

[4] = tested on: Staphylococcus aureus NCTC 6571
Procedure: as §1, §2, §3

[5] = tested on: E. coli (ATCC 29522) biofilm; assay: Single species biofilm treatment, crystal violet assay; conditions: 100 μM peptoid, 24 hours, FIG. 17C
Procedure: C. albicans (NCTC 3179) was subcultured aerobically on Sabouraud agar plates and propagated in yeast peptone dextrose broth. E. coli (ATCC 29522) and S. aureus (NCTC 6571) were grown on blood agar plates and propagated in brain heart infusion (BHI) broth.
Overnight cultures of C. albicans were washed and resuspended in a modified RPMI-1640 (Sigma-Aldrich, St Louis, USA) medium to yield an inoculum of 1.0×10^6 cells/ml. Overnight cultures of S. aureus or E. coli were washed and resuspended in brain heart infusion broth (Oxoid, Basingstoke, UK) to yield an inoculum of 5.0×10^6 cells/ml. A total volume of 100 μl of each inoculum was added to microtitre plate wells (Thermo Fisher Scientific, Roskilde, Denmark). An initial biofilm was allowed to form for 4 hours. Wells were washed three times with 200 μl PBS to facilitate removal of planktonic cells and the biofilms were then treated with 100 μM of peptoids 1-4 in the appropriate broth. Plates were incubated for a further 24 hours to allow biofilm maturation. After removal of planktonic cells by washing, biofilms were quantified by the crystal violet assay or by PMA-qPCR.
Biofilm quantification by crystal violet assay Washed biofilms were fixed with 100 μl methanol for 10 minutes. Following removal of methanol, the wells were air dried and stained with crystal violet solution (Clin-Tech Ltd, Guildford, UK) for 20 minutes at room temperature. Excess stain was removed by washing, the plate was then air dried and bound crystal violet was re-solubilised in 16 μl 33% acetic acid prior to reading at 570 nm in a microtitre plate reader (Tecan GENios, Ziirich, Switzerland).

[6] = tested on: Leishmania mexicana (M379)
Procedure: Leishmania mexicana (M379) promastigote parasites were maintained at 26° C. in Schneider's Insect medium (Sigma-Aldrich) supplemented with heat-inactivated foetal bovine sera (FBS, 15%; Biosera Ltd). Cells were counted using a Neubauer Improved Haemocytometer. Promastigotes were transformed into axenic amastigotes by a pH and temperature shift as previously described. A culture of recently transformed (three days) promastigotes in the late log phase was transferred into Schneider's Insect medium supplemented with 20% heat-inactivated FBS (pH 5.5) at 5×10^5 parasites/mL. After 6 days, the parasites were in the metacyclic stage and used for transformation to amastigote-like forms by transfer in the same medium at 32° C. at 5×10^5 parasites/mL. After additional 5-7 days, the parasites should be in the amastigote stage and be ready for cytotoxicity studies and infections.
Cytotoxicity analyses were performed in 96-well plates (Costar, Fisher Scientific) using Alamar Blue (Invitrogen) for cell viability detection as previously described.
Promastigote and amastigote L. mexicana were pre-incubated with the compounds in triplicate (5 mM stock solutions in DMSO; Amphotericin B was used as a positive control; untreated parasites with DMSO as a negative control) in 50 μl of the corresponding media at 4×106 mL-1 for 1 hour. Afterwards, 40 μl were removed from each well before the addition of 90 μl of the corresponding media, followed by incubation for 24 hours at 4×105 mL-1. Then, 10 μl Alamar Blue solution (Invitrogen) was added to each well for an incubation of 4 hours prior to assessing cell viability using a fluorescent plate reader (Biotek; Ex 560 nm/Em 600 nm). To investigate the effects of serum on the efficacy of the peptoids, the assay described above was modified using serum-free medium for the pre-incubation time. For these assays, the parasites were washed three times in serum-free medium before adding them to the compound solutions. All of the experiments described above were carried out on a minimum of two separate occasions to ensure a robust data set was collected.

[7] = second figure of cell, 37° C., 16 h, Iso-Sensitest broth

C[C@@H](c1ccccc1)N(CC(N)=O)C(=O)CN(C(=O)CN(CCCCN)C(=O)CN(C(=O)CN(C(=O)CN(CCCCN)C(=O)CN(C(=O)CN(C(=O)CN(CCCCNC(=N)N)C(=O)CN(C(=O)CN(C(=O)CNCCCCNC(=N)N)[C@@H](C)c1ccccc1)[C@@H](C)c1ccccc1)[C@@H](C)c1ccccc1)[C@@H](C)c1ccccc1)[C@@H](C)c1ccccc1)[C@@H](C)c1ccccc1)[C@@H](C)c1ccccc1 [Peptoid 2, (NhArg-Nspe-Nspe)2(NLys-Nspe-Nspe)2] (H-[NhArg][Nspe][Nspe][NhArg][Nspe][Nspe][Nlys][Nspe][Nspe][Nlys][Nspe][Nspe]-NH2; N-terminus assumed)
MIC E. coli ([1]; K12, 16 h): 17 µM | MIC E. coli [1, 7]: 32 mgL^−1 | MIC P. aeruginosa ([2]; laboratory strain PAO2, 16 h): 17 µM | MIC P. aeruginosa [2, 7]: 32 mgL^−1 | MIC S. marcescens ([3]; laboratory strain): 134 µM | MIC S. marcescens ([3]; second figure of cell, 37° C., Iso-Sensitest broth): 256 mgL^−1 | MIC S. aureus ([4]; NCTC 6571, 16 h): 17 µM | MIC S. aureus [4, 7]: 32 mgL^−1 | activity against the E. coli biofilm [5]: strongest anti-bacterial activity | IC50 ([6]; parasite stage not given, read-out: IC50 L. mexicana): 34 µM | active against L. mexicana ([6]; statement in words): active
